Laboratory results reported in the NIST ThermoML archive (doi:10.1016/j.jct.2017.06.006).

Test: mn = molality of the nth substance listed, in mol/kg
Conditions: 100 kPa, Liquid, Vibrating tube method

N[C@@H](Cc1ccccc1)C(=O)O [L-phenylalanine] + O
mass density [kg/m3]
Conditions	m1 = 0.0102	m1 = 0.0203	m1 = 0.0293	m1 = 0.0398	m1 = 0.0509	m1 = 0.0606	m1 = 0.061	m1 = 0.0736	m1 = 0.0915	m1 = 0.1028
283.15 K	1000.19	1000.64	1001.05	1001.53	1002.02	1002.47	1002.49	1003.05	1003.87	1004.36
288.15 K	999.59	1000.04	1000.44	1000.91	1001.39	1001.83	1001.85	1002.4	1003.2	1003.69
293.15 K	998.69	999.13	999.52	999.98	1000.46	1000.9	1000.91	1001.45	1002.24	1002.73
298.15 K	997.52	997.95	998.35	998.8	999.27	999.7	999.71	1000.25	1001.03	1001.5
303.15 K	996.12	996.54	996.93	997.38	997.85	998.27	998.28	998.81	999.58	1000.05

CCCCn1cc[n+](C)c1C.[Br-] [1-butyl-2,3-dimethylimidazolium bromide] + O
m1 = 0.1
Conditions	mass density [kg/m3]
283.15 K	1004.75
288.15 K	1004.08
293.15 K	1003.12
298.15 K	1001.89
303.15 K	1000.44

O [water] + N[C@@H](Cc1ccccc1)C(=O)O
Conditions	mass density [kg/m3]
283.15 K, m2 = 0	999.72

O [water] + CCCCn1cc[n+](C)c1C.[Br-]
Conditions	mass density [kg/m3]
283.15 K, m2 = 0	999.72
